Tested on: Monocotyledonous and dicotyledonous test plants
Experiment: Post-emergence herbicidal action
Type: in vivo
Settings: evaluated after approximately 18 days; for Post-emergence action, Ipomoea / Post-emergence action, Lolium / Post-emergence action, Setaria / Post-emergence action, Sinapis / Post-emergence action, Solanum / Post-emergence action, Stellaria: 2000 g/ha, sprayed in 4- to 6-leaf stage, nine-step scale; for Post-emergence action: Abutilon (score, nine-step scale) / Post-emergence action: Chenop. (score, nine-step scale) / Post-emergence action: Digitaria (score, nine-step scale) / Post-emergence action: Echino. (score, nine-step scale) / Post-emergence action: Ipopur. (score, nine-step scale) / Post-emergence action: Panicum (score, nine-step scale) / Post-emergence action: Xanth. (score, nine-step scale): 250 g/ha, sprayed at 4- to 6-leaf stage
Description: Monocotyledonous and dicotyledonous test plants are grown in the greenhouse in plastic pots containing standard soil, and, in the 4- to 6-leaf stage, sprayed with an aqueous suspension of the test substances of the formula I prepared with a 25% wettable powder (Example F3, b) in accordance with WO 97/34485) or with an emulsion of the test substances of the formula I prepared with a 25% emulsion concentrate (Example F1, c) in accordance with WO 97/34485), corresponding to a rate of 2 kg of a.i./ha or 250 g of a.i./ha (500 l of water/ha). The test plants are subsequently grown on in the greenhouse under optimal conditions. After a test period of approximately 18 days, the test is evaluated with reference to a nine-step scale (1=complete damage, 9=no effect). Score figures of 1 to 4 (in particular 1 to 3) mean a good to very good herbicidal action. In this test, the compounds of the formula I show a potent herbicidal action.

Row | SMILES | Post-emergence action, Ipomoea | Post-emergence action, Lolium | Post-emergence action, Setaria | Post-emergence action, Sinapis | Post-emergence action, Solanum | Post-emergence action, Stellaria | Post-emergence action: Abutilon (score, nine-step scale) | Post-emergence action: Chenop. (score, nine-step scale) | Post-emergence action: Digitaria (score, nine-step scale) | Post-emergence action: Echino. (score, nine-step scale) | Post-emergence action: Ipopur. (score, nine-step scale) | Post-emergence action: Panicum (score, nine-step scale) | Post-emergence action: Xanth. (score, nine-step scale)
1 | Cc1nc(C(F)(F)F)ccc1C(=O)C1=C(O)C(C(C)C)CCC1=O (centres unmarked) [Compound A2-B5] | 1 | 2 | 2 | 1 | 2 | 2 |  |  |  |  |  |  | 
2 | CSC1(C)CCC(=O)C(C(=O)c2ccc(C(F)(F)F)nc2C)=C1O (centres unmarked) [Compound A2-B29] | 2 | 3 | 2 | 1 | 2 | 2 |  |  |  |  |  |  | 
3 | CCCC1(C)CC(C)C(=O)C(C(=O)c2ccc(C(F)(F)F)nc2C)=C1O (centres unmarked) [Compound A2-B70] | 3 | 4 | 3 | 1 | 2 | 2 |  |  |  |  |  |  | 
4 | CCC1(CC)CCC(=O)C(C(=O)c2ccc(C(F)(F)F)nc2C)=C1O [Compound A2-B112] | 2 | 3 | 2 | 1 | 2 | 2 |  |  |  |  |  |  | 
5 | Cc1nc(C(F)(F)F)ccc1C(=O)C1=C(O)CC(c2ccccc2)CC1=O (centres unmarked) [Compound A2-B1058] | 1 | 2 | 4 | 1 | 2 | 2 |  |  |  |  |  |  | 
6 | Cc1nc(C(F)(F)F)ccc1C(=O)C1=C(O)CC(C)(C(F)(F)F)CC1=O (centres unmarked) [Compound A2-B1066] | 1 | 3 | 2 | 1 | 2 | 2 |  |  |  |  |  |  | 
7 | COC(=O)C1(C)C(O)=C(C(=O)c2ccc(C(F)(F)F)nc2C)C(=O)CC1(C)C (centres unmarked) [Compound A2-B1087] | 1 | 4 | 3 | 1 | 2 | 2 |  |  |  |  |  |  | 
8 | CCSC1(CC)CC(C)C(=O)C(C(=O)c2ccc(C(F)(F)F)nc2C)=C1O (centres unmarked) [Compound A2-B1091] |  |  |  |  |  |  | 3 | 3 | 4 | 2 | 3 | 4 | 4
9 | CCC1(CC)CC(C)C(=O)C(C(=O)c2ccc(C(F)(F)F)nc2C)=C1O (centres unmarked) [Compound A2-B1093] | 2 | 2 | 2 | 1 | 2 | 2 |  |  |  |  |  |  | 
10 | COC(=O)C1C(O)=C(C(=O)c2ccc(C(F)(F)F)nc2C)C(=O)CC1(C)C (centres unmarked) [Compound A2-B1094] |  |  |  |  |  |  | 3 | 2 | 3 | 2 | 3 | 2 | 3
11 | CCN(CC)CC.Cc1nc(C(F)(F)F)ccc1C(=O)C1=C(O)CC(C)CC1=O (centres unmarked) [Compound A2-B1101] | 2 | 2 | 2 | 1 | 1 | 3 |  |  |  |  |  |  | 
12 | Cc1nc(C(F)(F)F)ccc1C(=O)C1=C(O)CCC2(CCCCCC2)C1=O [Compound A2-C149] | 1 | 3 | 2 | 1 | 2 | 2 |  |  |  |  |  |  | 
13 | Cc1nc(C(F)(F)F)ccc1C(=O)C1=C(O)C2CC2C(C)([S+](C)[O-])C1=O (centres unmarked) [Compound A2-D114, 5-Hydroxy-2-methanesulfinyl-2-methyl-4-(2-methyl-6-trifluoromethylpyridine-3-carbonyl)bicyclo[4.1.0]hept-4-en-3-one] | 2 | 1 | 1 | 1 | 1 | 1 |  |  |  |  |  |  | 
14 | Cc1nc(C(F)(F)F)ccc1C(=O)C1=C(O)CCC2(CCOC2=O)C1=O (centres unmarked) [Compound A2-E16] | 2 | 3 | 2 | 2 | 2 | 2 |  |  |  |  |  |  | 
15 | CC1=CCCC(O)=C(C(=O)c2ccc(C(F)(F)F)nc2C)C1=O [Compound A2-F5, 3-Hydroxy-7-methyl-2-(2-methyl-6-trifluoromethyloyridine-3-carbonyl)cyclohepta-2,6-dienone] |  |  |  |  |  |  | 3 | 3 | 3 | 3 | 4 | 3 | 3
16 | CC1(C)CCC(=O)C(C(=O)c2ccc(C(F)(F)F)nc2C2CC2)=C1O [Compound A6-B24] | 1 | 3 | 2 | 1 | 1 | 2 |  |  |  |  |  |  | 
17 | CCCc1nc(C(F)(F)F)ccc1C(=O)C1=C(O)C(C)(C)CCC1=O [Compound A7-B24] | 1 | 2 | 2 | 1 | 2 | 2 |  |  |  |  |  |  | 
18 | COCc1nc(C(F)(F)F)ccc1C(=O)C1=C(O)CC(C)CC1=O (centres unmarked) [Compound A8-B133] | 2 | 4 | 2 | 1 | 2 | 2 |  |  |  |  |  |  | 
19 | COCc1nc(C(F)(F)F)ccc1C(=O)C1=C(O)C(C)C(C)CC1=O (centres unmarked) [Compound A8-B134] |  |  |  |  |  |  | 2 | 2 | 3 | 3 | 3 | 3 | 3
20 | COCc1nc(C(F)(F)F)ccc1C(=O)C1=C(O)CC2CCCC2C1=O (centres unmarked) [Compound A8-D36] |  |  |  |  |  |  | 2 | 2 | 3 | 2 | 3 | 3 | 3

Reference: patent publication US6673938B1, “Substituted pyridine herbicides” (Syngenta Participations AG, priority 1998, dated 2004)
